Measured values as given in patent US4990510A, “Substituted indoloquinoxalines” (Leif Lundblad, priority 1986, dated 1991).
≈ marks a conversion by molar mass, not a printed value. Structures can show the parent of a compound that is named as a salt.

Tests used:
[1] = Acute toxicity (LD50) in mice; assay type: in vivo; conditions: for LD50: mouse, in vivo
Protocol: (§1) Experiments with mice have also been carried out. LD50 intraperitoneally is of the order 1000 mg/kg and about 100 mg/kg intravenously. […] were inocculated with 5 millions mouse ascites tumor cells intraperitoneally. 80 mg/kg of B219 were given daily for ten days. 2 mice died 22 days after treatment, 8 mice survived the whole test period (3 months). All controls were then dead. In two experiments with ascites lymphoma cells in mice a survival time of 50.9 days was obtained in the first experiment and 45.6 days in the second. The survival time for the controls , was 16.2 and 16.1 days respectively.

[2] = test system: Herpes simplex type 1 and 2; assay: Herpes simplex virus tissue culture test (human amnion AV3-cells), cytopathogenic effect; assay type: cell-based, Herpes simplex virus type 1 and 2; conditions: for EC50: Human alphaherpesvirus 1, Table 1, read-out: Herpes Simplex tissue culture OL50 (concentration for 50% survival); for Herpes Simplex tissue culture OL50 (concentration for 50% survival): Table 1
Protocol: (§2) The virus strains were obtained from the National Bacteriological Laboratory, Stockholm. Herpes simplex type 1 and 2 were passaged intracerebrally in mice. For mouse experiments male mice 2-3 weeks old were used. Intracerebral infection was carried out by introducing the syringe 3 mm above the eye to a depth of approximately 3 mm. 0.03 ml virus suspension was injected above one eye and the substance above the other. Control groups obtained on one hand injection with physiological saline and on the other hand virus suspension.
Tissue culture experiments took place with human amnion AV3-cells. The cells were grown in glass-tubes (12×100 mm) in Eagles medium containing Earles salt solution and 10% of calf-serum. Tubes with a full-grown homogenous layer of cells were infected with virus (0.15 ml) and the virus was allowed to adsorb to cells for 1 hour at 37° C. The tubes were treated with substance dissolved in medium 24 hours and 0 hour before infection. Medium containing test-substance was changed every second day throughout the experiment. In each test a series of concentrations of the test-substance was investigated simultaneously so that about 50% reduction in cytopatogenic effect could be established (ED50).

herpes virus = conditions: literature; cited from earlier work
HeHrl-cells = assay: Growth/killing of Burkitt lymphoma HeHrl-cells (HeHr); assay type: cell-based; conditions: FIGS. 1 and 2
Protocol: (§3) Burkitt lymphoma cells were obtained from professor Georg Klein, Karolinska Institutet. HeHrl-cells contain Epstein-Barr virus antigen on the surface of the cells while Raji cells contain the same antigen in the nucleus. The cells were grown in RPMI 1640 medium in the presence of 15% of fetal calf-serum, 2mM glutamine, 200 mg/1 penicillin and 200 mg/1 of streptomycine. L 1210 cells (mouse leukemia) were obtained from Dr. Miklos Degre, Rikshospitalet, Oslo. These cells were grown in RPMI 1640 medium with 10% horse serum.

Raji cells = assay: Growth/killing of Burkitt lymphoma Raji-cells; assay type: cell-based; conditions: FIGS. 1 and 3
Protocol: as §3

osteogenic sarcoma cells = assay: Growth inhibition of osteogenic sarcoma cells; assay type: cell-based; conditions: after 6 days test with 1 mg/1
Protocol: (§4) Also osteogenic sarcoma cells and giant tumor cells (strain T4) were inhibited to 90% in their growth after 6 days test with 1 mg/1.

[3] = test system: giant tumor cells (strain T4); assay: Growth inhibition of giant tumor cells (strain T4); assay type: cell-based; conditions: after 6 days test with 1 mg/1
Protocol: as §4

[4] = test system: herpes simplex virus type 1; assay: Virus mixed with B196, with or without dialysis, injected intracerebrally into mice (FIG. 4); assay type: in vivo, herpes simplex virus type 1 in mice
Protocol: as §2
In the experiments shown in FIG. 4 various concentrations of B-196 were mixed with herpes simplex virus type 1 and injected intracerebrally into mice immediately at or after dialysis, at 4° C. over night. No survivors were recorded in control groups.

[5] = test system: herpes simplex virus type 1; assay: Virus inactivation after incubation with B196, infectivity by intracerebral injection in mice (FIG. 5); assay type: in vivo, herpes simplex virus type 1 in mice; conditions: 75 and 150 μg/ml, 4° C.
Protocol: In the experiments shown in FIG. 5 two concentrations of B-196 (75 and 150 μg/ml) were incubated for different times at 4° C. with herpes simplex virus type 1 and the infectivity of the mixtures were determined by intracerebral injection in mice Control virus was incubated at 4° C. for the same period of time. No survivors were registered in these groups.

[6] = test system: mouse ascites tumor cells; assay: Mouse ascites tumor survival experiment; assay type: in vivo; conditions: 80 mg/kg daily for ten days
Protocol: as §1

ascites lymphoma cells = assay: Ascites lymphoma survival experiments in mice; assay type: in vivo
Protocol: as §1

Cc1cc2nc3c4cc(Br)ccc4n(CCN(C)C)c3nc2cc1C [Example 6, 2,3-dimethyl-9-bromo-6-(N,N-dimethylaminoethyl)-6H-indolo-(2,3-b)quinoxalin]
LD50 ([1]; Table 1): > 250 mg/kg
EC50 [2]: < 0.5 µg/mL

O=C(O)CP(=O)(O)O [phosphonoacetic acid]
activity against herpes virus (herpes virus): active against herpes virus

O=C(O)P(=O)(O)O [phosphonoformic acid]
activity against herpes virus (herpes virus): active against herpes virus

Cc1ccc2c(c1)c1nc3ccccc3nc1n2CCN(C)C [Example 8]
LD50 mouse ([1]; Table 1): > 200 mg/kg
Herpes Simplex tissue culture OL50 (concentration for 50% survival) [2]: 1 µg/mL

CN(C)CCn1c2ccc(Br)cc2c2nc3ccccc3nc21 [Example B196, 9-bromo-6(N,N-dimethylaminoethyl)-6H-indolo(2,3-b)-quinoxaline . HCl]
sensitivity / killing of HeHrl-cells (HeHrl-cells): rapidly killed
sensitivity / killing of Raji-cells (Raji cells): rapidly killed
inhibition of growth, osteogenic sarcoma cells (osteogenic sarcoma cells): 90%
inhibition of growth, giant tumor cells (strain T4) [3]: 90%
survival rate ([4]; virus mixed with B196 before injection, increases from 0): 100%
effect on survival rate after dialysis ([4]; virus-substance mixture subjected to dialysis before injection): almost equally pronounced
inactivation of HSV1-virus vs. time [5]: virus slowly is inactivated

Cc1cc2nc3c4cc(Br)ccc4n(CCN(C)C)c3nc2cc1C [Example B219]
mice died 22 days after treatment ([6]; 5 millions ascites tumor cells intraperitoneally): 2 mice
mice survived the whole test period ([6]; 3 months, all controls dead): 8 mice
survival time, first experiment (ascites lymphoma cells; first experiment, controls 16.2 days): 50.9 days
survival time, second experiment (ascites lymphoma cells; second experiment, controls 16.1 days): 45.6 days

CN(C)CCn1c2ccc(Cl)cc2c2nc3ccccc3nc21.Cl [Example 5, 9-chloro-6-(N,N-dimethylaminoethyl)-6H-indolo(2,3-b)-quinoxaline-HCl]
LD50 mouse ([1]; Table 1, listed as 9): > 250 mg/kg
LD50 ([1]; Table 1): 180 mg/kg
EC50 [2]: 1 µg/mL

Cc1ccc2c(c1)c1nc3ccccc3nc1n2CCN(C)C [Example 4, 9-methyl-6-(N,N-dimethylaminoethyl)-6H-indolo(2,3-b)quinoxaline]
LD50 ([1]; Table 1): > 200 mg/kg
EC50 [2]: 1 µg/mL (≈ 3.29 µM)

Cc1ccc2c(c1)c1nc3ccccc3nc1n2CCN(C)C [Example 10, 9-methyl-6-(N,N-dimethylaminoethyl)-6H-indolo(2,3-b)-quinoxaline-ICl]
LD50 mouse ([1]; Table 1): 220 mg/kg
Herpes Simplex tissue culture OL50 (concentration for 50% survival) [2]: 0.5 µg/mL
